In BigSolDB 2.1:

O=C1c2ccccc2-c2ccccc21
solubility (mole fraction)
Details | 278.15 K | 283.15 K | 288.15 K | 293.15 K | 298.15 K | 303.15 K | 308.15 K | 313.15 K | 318.15 K
in DMSO | 0.0418 | 0.0609 | 0.0728 | 0.0855 | 0.112 | 0.142 | 0.178 | 0.216 | 0.306
in acetonitrile | 0.0209 | 0.0311 | 0.0481 | 0.0657 | 0.102 | 0.134 | 0.201 | 0.281 | 0.358
in ethanol | 0.0127 | 0.014 | 0.0164 | 0.0222 | 0.0267 | 0.0307 | 0.0428 | 0.0506 | 0.0693
in ethyl acetate | 0.105 | 0.137 | 0.142 | 0.172 | 0.225 | 0.243 | 0.284 | 0.35 | 0.371
in ethyl formate | 0.0907 | 0.111 | 0.14 | 0.163 | 0.22 | 0.25 | 0.32 | 0.366 | 0.409
in isobutanol | 0.0156 | 0.0207 | 0.0241 | 0.0305 | 0.0387 | 0.0504 | 0.0622 | 0.0745 | 0.0963
in isopropanol | 0.0087 | 0.0119 | 0.0152 | 0.0217 | 0.0273 | 0.0384 | 0.0472 | 0.0592 | 0.0801
in methanol | 0.0037 | 0.0044 | 0.0059 | 0.0084 | 0.012 | 0.0154 | 0.0199 | 0.0288 | 0.0401
in n-butanol | 0.0119 | 0.0142 | 0.0182 | 0.0286 | 0.0371 | 0.0461 | 0.0631 | 0.0826 | 0.113
in n-hexane | 0.0038 | 0.0047 | 0.0054 | 0.007 | 0.0097 | 0.0132 | 0.0169 | 0.0227 | 0.0304
in n-propanol | 0.0143 | 0.0169 | 0.0214 | 0.0294 | 0.0381 | 0.0482 | 0.0653 | 0.083 | 0.0997
